≈ marks a conversion by molar mass, not a printed value. Entries after “also recorded” stand apart in the source; their conditions may differ. Values belong to the compound of their own block, whether it stands above or below them.
Columns and labels:
Cryptococcus neoformans = assay: MIC, twofold serial broth dilution assay, Cryptococcus neoformans; type: cell-based, Cryptococcus neoformans ATCC 32264; details: 48 h, Cn, 26°
Experimental: (§1) The generic name for the compound is 3-Methoxysampangine. The antifungal activity of the compound was determined by in vitro evaluation against Candida albicans NIH B311, Cryptococcus neoformans ATCC 32264, and Aspergillus fumigatus ATCC 26934 using the known agar-well diffusion assay techniques with the following modifications.
(§2) Candida albicans NIH B311 used to induce experimental disseminated candidiasis was used for the initial qualitative evaluation of anticandidal activity. The organism was grown in Sabouraud-dextrose broth (SDB) for 24 hours at 37°, at which time the cells were harvested by centrifugation at (4°, 2000 rpm, 3 min.). After centrifugation, the cells were washed and suspended in sterile 0.9% saline to give a final concentration of 10^6 colony forming units (CFU) per ml (adjusted using a hemocytometer). Inocula of Cryptococcus neoformans and Aspergillus fumigatus were prepared by suspension of the surface growth of stock agar slants in sterile H2 O. Culture plates (15×100 mm) for the qualitative assay were prepared from 25 ml of Sabouraud-dextrose agar for Candida albicans, and Mycophil™ agar for Cryptococcus neoformans and Aspergillus fumigatus. Using sterile cotton swabs, the plates were streaked with the suspension of appropriate test organism. Cylindrical plugs were removed from the agar plates by means of sterile cork borer to produce wells with a diameter of approximately 11 mm. To the well was added 100 μl of solution or suspension of an extract, fraction, or pure compound. Crude extracts and fractions were tested at a concentration of 20 mg/ml, whereas pure compounds were tested at 1 mg/ml. When solvents other than water, ethanol, methanol, dimethylsulfoxide (DMSO), dimethylformamide (DMF), or acetone were required to dissolve extracts or compounds, solvent blanks were included. Antifungal activity was recorded as the width (in mm) of the zone of inhibition, measured from the edge of the agar well to the edge of the zone, following incubation of the plates for 24 hours (37° for Candida albicans, 30° for Aspergillus fumigatus and 26° for Cryptococcus neoformans). The antifungal agents amphotericin B and ketoconazole were included as positive controls in each assay.
(§3) The method used to determine the minimum inhibitory concentration (MIC) was the twofold serial broth dilution assay in one or more of the following broth media: yeast nitrogen broth, Mycophil™ broth and Saboraud-dextrose broth (SDB). The inoculum for the MIC determination was prepared as described above for the qualitative evaluation. Using a calibrated sterile wire loop, each tube was inoculated with 10 μl of the suspension. The MIC value was taken as the lowest concentration of compound that inhibited the growth of the test organisms after an appropriate incubation period (37° for 24 hours for Candida albicans; 30° for 48 hours for Aspergillus fumigatus; 26° for 48 hours for Cryptococcus neoformans). The antifungal agent amphotericin B was included as positive control in each assay.

Aspergillus fumigatus = assay: MIC, twofold serial broth dilution assay, Aspergillus fumigatus; type: cell-based, Aspergillus fumigatus ATCC 26934; details: Af, 30°, 48 hours
Experimental: as §1, §2, §3

Candida albicans [1] = assay: MIC, twofold serial broth dilution assay, Candida albicans; type: cell-based, Candida albicans NIH B311; details: 24 h, 37°
Experimental: as §2, §3

[2] = test system: Candida albicans, Cryptococcus neoformans and Aspergillus fumigatus; assay: in vitro antifungal activity, overall statement in words; type: cell-based; details: against both yeasts and the filamentous fungus
Experimental: as §1, §2
The method used to determine the minimum inhibitory concentration (MIC) was the twofold serial broth dilution assay in one or more of the following broth media: yeast nitrogen broth, Mycophil™ broth and Saboraud-dextrose broth (SDB). The inoculum for the MIC determination was prepared as described above for the qualitative evaluation. Using a calibrated sterile wire loop, each tube was inoculated with 10 μl of the suspension. […]

Candida albicans [3] = details: J. Natural Products 1987, Hufford et al.; cited from earlier work
[4] = Cryptococcus neoformans, MYCO (Mycophil broth)
[5] = Candida albicans, Ca B311, MYCO (Mycophil broth)
[6] = YNB (yeast nitrogen base broth)
[7] = Cryptococcus neoformans, SDB (Sabouraud dextrose broth)
[8] = Ca B311, YNB (yeast nitrogen base broth)
[9] = Candida albicans, Ca B311, SDB (Sabouraud dextrose broth)

Compound: O=C1c2ccccc2-c2nccc3ccnc1c23 [Sampangine]
MIC (Cryptococcus neoformans; YNB (yeast nitrogen base broth) (original)): < 0.005 µg/mL
MIC (Cryptococcus neoformans; [6]): < 0.2 µg/mL
MIC (Cryptococcus neoformans; [4]): 0.78 µg/mL (≈ 3.36 µM)
MIC (Cryptococcus neoformans; [7]): < 0.2 µg/mL
MIC (Aspergillus fumigatus; MYCO (Mycophil broth)): 1.56 µg/mL (≈ 6.72 µM)
antifungal activity (in words) [2]: significant antifungal activity
MIC (Candida albicans [1]; Ca B311, YNB (yeast nitrogen base broth) (original)): 1.56 µg/mL (≈ 6.72 µM)
MIC (Candida albicans [1]; [8]): 0.78 µg/mL (≈ 3.36 µM)
MIC (Candida albicans [1]; [5]): 12.5 µg/mL (≈ 53.8 µM)
MIC (Candida albicans [1]; [9]): 6.25 µg/mL (≈ 26.9 µM)

Compound: COc1cnc2c3c(nccc13)-c1ccccc1C2=O [4-Methoxysampangine]
MIC (Cryptococcus neoformans; [6]): 12.5 µg/mL (≈ 47.7 µM)
MIC (Cryptococcus neoformans; [4]): 1.56 µg/mL (≈ 5.95 µM)
MIC (Cryptococcus neoformans; [7]): 3.12 µg/mL (≈ 11.9 µM)
antifungal activity (in words) [2]: significant antifungal activity
MIC (Candida albicans [1]; [8]): 3.12 µg/mL (≈ 11.9 µM)
MIC (Candida albicans [1]; [5]): 100 µg/mL (≈ 381 µM)
MIC (Candida albicans [1]; [9]): 100 µg/mL (≈ 381 µM)

Compound: c1ccc2c(c1)-c1nccc3ccnc-2c13 [eupolauridine]
anticandidal properties (in words) (Candida albicans [3]): possibly remarkable anticandidal properties

Compound: COc1cnc2c3c(nccc13)C(=O)c1ccccc1-2 [3-Methoxysampangine]
MIC (Cryptococcus neoformans; [7]): 0.2 µg/mL (≈ 0.763 µM)
MIC (Aspergillus fumigatus; SDB (Sabouraud dextrose broth)): 3.12 µg/mL (≈ 11.9 µM)
antifungal activity (in words) [2]: significant antifungal activity; also recorded: remarkable antifungal properties
MIC (Candida albicans [1]; [9]): 3.12 µg/mL (≈ 11.9 µM)

Further lines, with some results ahead:

MIC (Cryptococcus neoformans; [4]): 0.2 µg/mL (≈ 0.216 µM)
MIC (Aspergillus fumigatus; MYCO (Mycophil broth)): 3.12 µg/mL (≈ 3.38 µM)
MIC (Candida albicans [1]; [5]): 0.2 µg/mL (≈ 0.216 µM)
Compound: C[C@@H]1[C@H](O)[C@@H](C)/C=C/C=C/C=C/C=C/C=C/C=C/C=C/[C@H](O[C@@H]2O[C@H](C)[C@@H](O)[C@H](N)[C@@H]2O)C[C@@H]2O[C@](O)(C[C@@H](O)C[C@@H](O)[C@H](O)CC[C@@H](O)C[C@@H](O)CC(=O)O[C@H]1C)C[C@H](O)[C@H]2C(=O)O [Amphotericin B, reference compound]

MIC (Cryptococcus neoformans; [6]): < 0.2 µg/mL
MIC (Cryptococcus neoformans; [4]): < 0.2 µg/mL
MIC (Cryptococcus neoformans; [7]): 0.39 µg/mL (≈ 1.25 µM)
MIC (Aspergillus fumigatus; MYCO (Mycophil broth)): 50 µg/mL (≈ 161 µM)
MIC (Candida albicans [1]; [8]): 12.5 µg/mL (≈ 40.2 µM)
MIC (Candida albicans [1]; [5]): 25 µg/mL (≈ 80.4 µM)
MIC (Candida albicans [1]; [9]): 25 µg/mL (≈ 80.4 µM)
Compound: O=C1c2ccccc2-c2nccc3c(Br)cnc1c23 [4-Bromosampangine]
antifungal activity (in words) [2]: significant antifungal activity

MIC (Cryptococcus neoformans; [6]): 1.56 µg/mL (≈ 5.53 µM)
MIC (Cryptococcus neoformans; [4]): < 0.2 µg/mL
MIC (Cryptococcus neoformans; [7]): < 0.2 µg/mL
MIC (Aspergillus fumigatus; MYCO (Mycophil broth)): 0.39 µg/mL (≈ 1.38 µM)
MIC (Candida albicans [1]; [8]): 3.12 µg/mL (≈ 11.1 µM)
MIC (Candida albicans [1]; [5]): 50 µg/mL (≈ 177 µM)
MIC (Candida albicans [1]; [9]): 1.56 µg/mL (≈ 5.53 µM)
Compound: O=C1c2ccccc2-c2nccc3c2c1nc1ccccc13 [Benzo[4,5]sampangine]
